In US20130023553A1, “PEGYLATED OPIOIDS WITH LOW POTENTIAL FOR ABUSE AND SIDE EFFECTS” (Nektar Therapeutics, priority 2010, published 2013):
Entries after “also recorded” stand apart in the source; their conditions may differ.

How the values were obtained:
Sprague-Dawley rats = test: Abuse liability: three-day substitution test in rats trained to self-administer cocaine; conditions: i.v. self-administration
Sprague-Dawley male rats = test: Motor coordination (sedation) on the rotarod treadmill; assay type: in vivo; conditions: for sedation compared to oxycodone: equianalgesic dose
Protocol: The following studies were conducted to evaluate the effect of orally administered PEG-6-O-hydroxycodone on motor coordination (i.e., sedation) in rats using the rat rotarod Treadmill. Motor coordination was evaluated at 0.5 h and 1 h post-dose.
The rats weighed between 240 to 280 grams on the day of study. Rats were not fasted prior to dosing.
Animals were trained to run on the treadmill for 2 consecutive days prior to the day of study. Animals were trained at a constant speed of 10 RPM and were given as many trials as necessary until they were able to stay on the rotarod for 300 seconds. Rats that were able to stay on the rod for 300 seconds were considered trained. On the day of study, animals were placed on the rotarod treadmill at 0, 30, and 60 minutes post dose. The treadmill was set at a constant speed of 4 RPM for 15 seconds, at this point the timer was started (T=0). After this 15 second period, the rotarod was set to accelerate from 4-40 RPM over a five minute period (using the built in program of the rotarod). The time (in seconds) that each animal stopped running and tripped the plate was recorded as the animal's run time. Animals that ran for 300 seconds were taken of the treadmill and 300 seconds was recorded as the run time.
The objective of this study was to evaluate the effect of 10, 30, 100, and 300 mg/kg of PEG-6-O-hydroxycodone on motor coordination in rats using the rotarod treadmill. All doses were administered orally and evaluated at 0.5 h and 1 h post-dose.

human mu opioid receptor = target: T1, human mu opioid receptor (Homo sapiens, UniProt P35372); test: cell-based
T1 construct: expressed in transfected cells; host or cells: CHO cells
T1 sequence (P35372 whole entry): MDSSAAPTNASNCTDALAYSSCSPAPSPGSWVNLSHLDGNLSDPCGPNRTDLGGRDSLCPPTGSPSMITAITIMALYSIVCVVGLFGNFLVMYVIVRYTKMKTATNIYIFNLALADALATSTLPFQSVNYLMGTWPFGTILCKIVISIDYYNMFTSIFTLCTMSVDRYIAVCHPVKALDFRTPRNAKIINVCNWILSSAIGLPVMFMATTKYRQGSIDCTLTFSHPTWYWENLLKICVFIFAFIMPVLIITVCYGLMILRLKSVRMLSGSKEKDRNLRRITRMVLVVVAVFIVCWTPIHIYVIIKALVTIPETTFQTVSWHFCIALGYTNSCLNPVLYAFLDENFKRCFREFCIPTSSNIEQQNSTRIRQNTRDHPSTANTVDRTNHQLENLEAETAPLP

[1] = Pharmacokinetics following oral (PO) dosing; assay type: in vivo, Sprague-Dawley rats; conditions: male, Sprague-Dawley, rat, plasma
Excerpt: There were 3 rats/group. All animals were food fasted overnight. […] The predose sample was collected from the JVC.
Following the last collection point, the animals were euthanized.

[2] = listed as mPEG6-O-hydroxycodone
[3] = hydroxycodone series, 5.0 mg/kg oral, Mean ± SD

## COCCOCCOCCOCCOCCOCCOC1CCC2(O)C3Cc4ccc(OC)c5c4C2(CCN3C)C1O5 (stereo not drawn) [α-6-mPEG6-O-hydroxycodone, α-6-mPEG6-O-oxycodone]
Sprague-Dawley rats
  reinforcing behavior, three-day substitution: no reinforcing behavior was observed; also recorded: lack of reinforcing behavior
Sprague-Dawley rats; [2]
  reinforcing behavior, three-day substitution: no behavioral evidence of positive reinforcement
Sprague-Dawley male rats; 300 mg/kg oral, 0.5 h and 1 h post-dose
  motor impairment, overall: slight motor impairment
Sprague-Dawley male rats; 10, 30, 100 mg/kg oral
  rotarod performance, overall: failed to impair rotarod performance
Sprague-Dawley male rats; listed as PEG-6-O-hydroxycodone
  sedation compared to oxycodone: produces less sedation than the parent opioid
Sprague-Dawley male rats; [2]
  sedation compared to oxycodone: less sedation
Sprague-Dawley male rats; initial study, 30 mg/kg oral, 0.5 h post-dose
  time spent on the rotarod compared to saline control: showed a reduction in time spent on the rotarod
Sprague-Dawley male rats; initial study, 10, 100 or 300 mg/kg oral, 0.5 h and 1 h post-dose
  rotarod performance compared to saline control: did not exhibit impaired rotarod performance
Sprague-Dawley male rats; repeated study, 300 mg/kg oral, 0.5 h and 1 h post-dose
  time spent on rotarod compared to saline control: showed a reduction in time spent on rotarod
Sprague-Dawley male rats; repeated study, 10, 30 or 100 mg/kg oral, 0.5 h and 1 h post-dose
  rotarod performance compared to saline control: did not demonstrate impaired rotarod performance
Human mu opioid receptor; maximal response at the highest tested concentration, read-out: % max effect, mu opioid receptor
  Emax: 102%
Human mu opioid receptor; read-out: EC50, mu opioid receptor
  EC50: 12.5 µM
[1]; po, 5 mg/kg
  bioavailability: 55.3%
[1]; [3]
  AUC: 585 ng·h/mL
  MRT last: 2.57 h
[1]; hydroxycodone series, 5.0 mg/kg oral, Mean ± SD, * n = 2
  AUC(0-inf): 603 ng·h/mL
[1]; hydroxycodone series, 5.0 mg/kg oral, Mean ± SD, * n = 2, read-out: T1/2(z)
  half-life: 85.4 ± 7.83 min
[1]; hydroxycodone series, 5.0 mg/kg oral, Mean ± SD, read-out: Cmax
  Cmax: 171 ± 76.6 ng/mL
[1]; hydroxycodone series, 5.0 mg/kg oral, median value, read-out: Tmax (converted)
  Tmax: 2 h
